According to patent US7838498B2, “Benzylic glycoside derivatives and methods of use” (Theracos, Inc., priority 2007, dated 2010):

What was measured:
[1] = biological target: T1, human SGLT1 (Homo sapiens, UniProt P13866); assay: Methyl-α-D-[U-14C]glucopyranoside uptake assay, COS-7 cells expressing human SGLT1; format: cell-based; conditions: COS-7 cells expressing human SGLT1, 2 h incubation
T1 construct: Full-length human SGLT1 cDNA on pDream2.1 expression vector was obtained from GenScript Corporation; host or cells: COS-7 cells (American Type Culture Collection)
T1 sequence (P13866 1-664): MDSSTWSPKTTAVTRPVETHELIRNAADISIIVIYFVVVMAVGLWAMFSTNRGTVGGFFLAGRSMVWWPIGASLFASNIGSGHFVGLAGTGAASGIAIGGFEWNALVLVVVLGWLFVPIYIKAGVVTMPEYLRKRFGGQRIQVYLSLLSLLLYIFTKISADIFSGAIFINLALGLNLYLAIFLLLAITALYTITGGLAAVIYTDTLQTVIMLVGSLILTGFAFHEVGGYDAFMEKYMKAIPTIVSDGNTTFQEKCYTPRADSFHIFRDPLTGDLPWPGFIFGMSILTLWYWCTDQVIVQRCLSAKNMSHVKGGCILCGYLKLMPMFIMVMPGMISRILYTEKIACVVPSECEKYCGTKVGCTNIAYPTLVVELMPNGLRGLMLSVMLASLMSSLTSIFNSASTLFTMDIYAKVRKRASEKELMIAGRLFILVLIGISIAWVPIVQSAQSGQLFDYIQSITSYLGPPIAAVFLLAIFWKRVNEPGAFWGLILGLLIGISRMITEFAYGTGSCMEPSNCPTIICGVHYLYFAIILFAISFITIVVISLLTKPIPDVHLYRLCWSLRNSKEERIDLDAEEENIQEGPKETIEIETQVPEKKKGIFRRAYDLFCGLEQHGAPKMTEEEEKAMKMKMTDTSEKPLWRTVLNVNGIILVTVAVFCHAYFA
Experimental: Full-length human SGLT1 cDNA on pDream2.1 expression vector was obtained from GenScript Corporation and propagated in Escherichia coli strain DH5α using Luria-Bertani (LB) medium containing ampicillin. Plasmid DNA was isolated using the QIAGEN Plasmid Midi Kit (QIAGEN Inc.). […] Transfected cells were stored in DMEM containing 10% dimethyl sulfoxide (DMSO) at −80° C.
(§1) Cells expressing SGLT1 or SGLT2 were seeded on 96-well ScintiPlate scintillating plates (PerkinElmer, Inc.) in DMEM containing 10% FBS (1×10^5 cells per well in 100 μL medium) incubated at 37° C. under 5% CO2 for 48 h prior to the assay. Cells were washed twice with 150 μL of either sodium buffer (137 mM NaCl, 5.4 mM KCl, 2.8 mM CaCl2, 1.2 mM MgCl2, 10 mM tris(hydroxymethyl)aminomethane/N2-hydroxyethylpiperazine-N′-ethanesulfonic acid [Tris/Hepes], pH 7.2) or sodium-free buffer (137 mM N-methyl-glucamine, 5.4 mM KCl, 2.8 mM CaCl2, 1.2 mM MgCl2, 10 mM Tris/Hepes, pH 7.2). Test compound in 50 μL each of sodium or sodium-free buffer containing 40 μCi/L methyl-α-D-[U-^14C]glucopyranoside (Amersham Biosciences/GE Healthcare), either with (symbols in parentheses) or without (symbols without parentheses) 25% human serum, was added per well of a 96-well plate and incubated at 37° C. with shaking for either 2 h (SGLT1 assay) or 1.5 h (SGLT2 assay). Cells were washed twice with 150 μL of wash buffer (137 mM N-methylglucamine, 10 mM Tris/Hepes, pH 7.2) and methyl-α-D-[U-^14C]glucopyranoside uptake was quantitated using a TopCount scintillation counter (PerkinElmer, Inc.). Sodium-dependent glucopyranoside uptake was measured by subtracting the values obtained with sodium-free buffer from those obtained using sodium buffer (average of triplicate determinations).

[2] = biological target: T2, human SGLT2 (Homo sapiens, UniProt P31639); assay: Methyl-α-D-[U-14C]glucopyranoside uptake assay, cells stably expressing human SGLT2; format: cell-based; conditions: HEK293.ETN cells expressing human SGLT2, 1.5 h incubation
T2 construct: A full-length cDNA clone expressing human SGLT2 (GenScript Corporation) was subcloned
T2 sequence (P31639 1-672): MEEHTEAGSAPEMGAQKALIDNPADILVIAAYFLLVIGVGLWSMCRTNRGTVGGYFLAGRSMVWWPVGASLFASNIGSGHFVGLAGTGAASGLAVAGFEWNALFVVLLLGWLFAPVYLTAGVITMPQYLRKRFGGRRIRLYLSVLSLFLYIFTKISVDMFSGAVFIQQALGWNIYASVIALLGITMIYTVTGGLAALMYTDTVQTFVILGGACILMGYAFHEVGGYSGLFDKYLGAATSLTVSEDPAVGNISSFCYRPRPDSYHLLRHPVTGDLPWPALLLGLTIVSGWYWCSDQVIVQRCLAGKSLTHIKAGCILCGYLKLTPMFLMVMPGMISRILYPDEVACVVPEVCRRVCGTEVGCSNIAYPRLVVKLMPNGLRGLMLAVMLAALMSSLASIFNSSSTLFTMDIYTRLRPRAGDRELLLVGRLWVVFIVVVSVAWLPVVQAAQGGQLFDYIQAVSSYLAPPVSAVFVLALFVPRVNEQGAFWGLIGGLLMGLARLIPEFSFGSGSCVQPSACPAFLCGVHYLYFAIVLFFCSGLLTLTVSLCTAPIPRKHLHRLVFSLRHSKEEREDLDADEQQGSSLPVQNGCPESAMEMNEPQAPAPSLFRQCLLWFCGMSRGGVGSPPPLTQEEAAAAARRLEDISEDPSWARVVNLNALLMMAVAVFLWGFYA
Description: A full-length cDNA clone expressing human SGLT2 (GenScript Corporation) was subcloned into […] and Not I sites of pEAK15 expression vector. Clones harboring the cDNA inserts were identified by restriction analysis.
Plasmid containing human SGLT2 was linearized with Nsi I and purified by agarose gel electrophoresis. Using Lipofectamine 2000 Transfection Reagent (Invitrogen Corporation), DNA was transfected into HEK293.ETN cells and cultured in Dulbecco's Modified Eagle Medium (DMEM) containing 10% fetal bovine serum (FBS) at 37° C. under 5% CO2 for 24 h. Transfectants were selected in the same growth medium supplemented with puromycin (Invitrogen Corporation) for two weeks. Puromycin-resistant cells were recovered and seeded on a fresh 96-well plate (single cell per well) and cultured in the presence of puromycin until cells became confluent. Puromycin-resistant clones were evaluated for SGLT2 activity in the methyl-α-D-[U-^14C]glucopyranoside uptake assay described below.
as §1

[3] = without human serum (symbols without parentheses)
[4] = with 25% human serum (symbols in parentheses)

IC50 [1, 3] [nM] | IC50 [2, 3] [nM] | IC50 [1, 4] [nM] | IC50 [2, 4] [nM] | Structure (SMILES)
> 10000 | < 1000 | – | – | CCc1ccc(Cc2cc([C@@H]3O[C@H](CO)[C@@H](O)[C@H](O)[C@H]3O)c(COCC(C)O)cc2Cl)cc1 (stereo partly drawn) [Compound M, (2S,3R,4R,5S,6R)-2-(4-chloro-5-(4-ethylbenzyl)-2-((2-hydroxypropoxy)methyl)phenyl)-6-(hydroxymethyl)tetrahydro-2H-pyran-3,4,5-triol]
> 10000 | < 1000 | – | – | CCc1ccc(Cc2cc([C@@H]3O[C@H](CO)[C@@H](O)[C@H](O)[C@H]3O)c(COCC(O)COC)cc2Cl)cc1 (stereo partly drawn) [Compound W, (2S,3R,4R,5S,6R)-2-(4-chloro-5-(4-ethylbenzyl)-2-((2-hydroxy-3-methoxypropoxy)methyl)phenyl)-6-(hydroxymethyl)tetrahydro-2H-pyran-3,4,5-triol]
– | – | 1000 to 10000 | < 1000 | CCOc1ccc(Cc2cc([C@@H]3O[C@H](CO)[C@@H](O)[C@H](O)[C@H]3O)c(CCOCCF)cc2Cl)cc1 [Compound BH, (2S,3R,4R,5S,6R)-2-(4-chloro-5-(4-ethoxybenzyl)-2-(2-(2-fluoroethoxy)ethyl)phenyl)-6-(hydroxymethyl)tetrahydro-2H-pyran-3,4,5-triol]
> 10000 | < 1000 | – | – | C=CCOCc1cc(Cl)c(Cc2ccc(CC)cc2)cc1[C@@H]1O[C@H](CO)[C@@H](O)[C@H](O)[C@H]1O [Compound I, (2S,3R,4R,5S,6R)-2-(2-(allyloxymethyl)-4-chloro-5-(4-ethylbenzyl)phenyl)-6-(hydroxymethyl)tetrahydro-2H-pyran-3,4,5-triol]

More lines, now with the values behind:

Structure (SMILES) | IC50 [1, 3] [nM] | IC50 [2, 3] [nM] | IC50 [1, 4] [nM] | IC50 [2, 4] [nM]
CCc1ccc(Cc2cc([C@@H]3O[C@H](CO)[C@@H](O)[C@H](O)[C@H]3O)c(CCOCCF)cc2Cl)cc1 [Compound AH, (2S,3R,4R,5S,6R)-2-(4-chloro-5-(4-ethylbenzyl)-2-(2-(2-fluoroethoxy)ethyl)phenyl)-6-(hydroxymethyl)tetrahydro-2H-pyran-3,4,5-triol] | 1000 to 10000 | < 1000 | – | –
CC#CCOCc1cc(Cl)c(Cc2ccc(O)cc2)cc1[C@@H]1O[C@H](CO)[C@@H](O)[C@H](O)[C@H]1O [Compound BC, (2S,3R,4R,5S,6R)-2-(2-((but-2-ynyloxy)methyl)-4-chloro-5-(4-hydroxybenzyl)phenyl)-6-(hydroxymethyl)tetrahydro-2H-pyran-3,4,5-triol] | – | – | > 10000 | < 1000
CCc1ccc(Cc2cc([C@@H]3O[C@H](CO)[C@@H](O)[C@H](O)[C@H]3O)c(OCCOC3CCCC3)cc2Cl)cc1 [Compound BG, (2S,3R,4R,5S,6R)-2-(4-chloro-2-(2-(cyclopentyloxy)ethoxy)-5-(4-ethylbenzyl)phenyl)-6-(hydroxymethyl)tetrahydro-2H-pyran-3,4,5-triol] | – | – | > 10000 | < 1000
C=CCOCc1cc(Cl)c(Cc2ccc(OCC)cc2)cc1[C@@H]1O[C@H](CO)[C@@H](O)[C@H](O)[C@H]1O [Compound AZ, (2S,3R,4R,5S,6R)-2-(2-(allyloxymethyl)-4-chloro-5-(4-ethoxybenzyl)phenyl)-6-(hydroxymethyl)tetrahydro-2H-pyran-3,4,5-triol] | > 10000 | < 1000 | – | –
CC#CCOCCOc1cc(Cl)c(Cc2ccc(CC)cc2)cc1[C@@H]1O[C@H](CO)[C@@H](O)[C@H](O)[C@H]1O [Compound BF, (2S,3R,4R,5S,6R)-2-(2-(2-(but-2-ynyloxy)ethoxy)-4-chloro-5-(4-ethylbenzyl)phenyl)-6-(hydroxymethyl)tetrahydro-2H-pyran-3,4,5-triol] | – | – | > 10000 | < 1000
CCc1ccc(Cc2cc([C@@H]3O[C@H](CO)[C@@H](O)[C@H](O)[C@H]3O)c(CCOCC(F)(F)F)cc2Cl)cc1 [Compound AK, (2S,3R,4R,5S,6R)-2-(4-chloro-5-(4-ethylbenzyl)-2-(2-(2,2,2-trifluoroethoxy)ethyl)phenyl)-6-(hydroxymethyl)tetrahydro-2H-pyran-3,4,5-triol] | > 10000 | < 1000 | – | –
CC#CCOCc1cc(Cl)c(Cc2ccc(OCC)cc2)cc1[C@@H]1O[C@H](CO)[C@@H](O)[C@H](O)[C@H]1O [Compound AY, (2S,3R,4R,5S,6R)-2-(2-((but-2-ynyloxy)methyl)-4-chloro-5-(4-ethoxybenzyl)phenyl)-6-(hydroxymethyl)tetrahydro-2H-pyran-3,4,5-triol] | > 10000 | < 1000 | – | –
CC#CCOCCc1cc(Cl)c(Cc2ccc(CC)cc2)cc1[C@@H]1O[C@H](CO)[C@@H](O)[C@H](O)[C@H]1O [Compound AN, (2S,3R,4R,5S,6R)-2-(2-(2-(but-2-ynyloxy)ethyl)-4-chloro-5-(4-ethylbenzyl)phenyl)-6-(hydroxymethyl)tetrahydro-2H-pyran-3,4,5-triol] | 1000 to 10000 | < 1000 | – | –
